“And” between values parts separate entries of the source, which are not always exact repeats. Identical values can stand only once.
How the values were obtained:
EGFR (human) [1] = target: EGFR (human) (UniProt P00533); settings: HN5
EGFR (human) [2] = target: EGFR (human) (UniProt P00533); settings: hn5
EGFR (human) [3] = target: EGFR (human) (UniProt P00533); settings: a431
EGFR (human) [4] = target: EGFR (human) (UniProt P00533); settings: caski
EGFR (human) [5] = target: EGFR (human) (UniProt P00533); settings: siha

Sequence of EGFR (human) (P00533 whole entry, looked up): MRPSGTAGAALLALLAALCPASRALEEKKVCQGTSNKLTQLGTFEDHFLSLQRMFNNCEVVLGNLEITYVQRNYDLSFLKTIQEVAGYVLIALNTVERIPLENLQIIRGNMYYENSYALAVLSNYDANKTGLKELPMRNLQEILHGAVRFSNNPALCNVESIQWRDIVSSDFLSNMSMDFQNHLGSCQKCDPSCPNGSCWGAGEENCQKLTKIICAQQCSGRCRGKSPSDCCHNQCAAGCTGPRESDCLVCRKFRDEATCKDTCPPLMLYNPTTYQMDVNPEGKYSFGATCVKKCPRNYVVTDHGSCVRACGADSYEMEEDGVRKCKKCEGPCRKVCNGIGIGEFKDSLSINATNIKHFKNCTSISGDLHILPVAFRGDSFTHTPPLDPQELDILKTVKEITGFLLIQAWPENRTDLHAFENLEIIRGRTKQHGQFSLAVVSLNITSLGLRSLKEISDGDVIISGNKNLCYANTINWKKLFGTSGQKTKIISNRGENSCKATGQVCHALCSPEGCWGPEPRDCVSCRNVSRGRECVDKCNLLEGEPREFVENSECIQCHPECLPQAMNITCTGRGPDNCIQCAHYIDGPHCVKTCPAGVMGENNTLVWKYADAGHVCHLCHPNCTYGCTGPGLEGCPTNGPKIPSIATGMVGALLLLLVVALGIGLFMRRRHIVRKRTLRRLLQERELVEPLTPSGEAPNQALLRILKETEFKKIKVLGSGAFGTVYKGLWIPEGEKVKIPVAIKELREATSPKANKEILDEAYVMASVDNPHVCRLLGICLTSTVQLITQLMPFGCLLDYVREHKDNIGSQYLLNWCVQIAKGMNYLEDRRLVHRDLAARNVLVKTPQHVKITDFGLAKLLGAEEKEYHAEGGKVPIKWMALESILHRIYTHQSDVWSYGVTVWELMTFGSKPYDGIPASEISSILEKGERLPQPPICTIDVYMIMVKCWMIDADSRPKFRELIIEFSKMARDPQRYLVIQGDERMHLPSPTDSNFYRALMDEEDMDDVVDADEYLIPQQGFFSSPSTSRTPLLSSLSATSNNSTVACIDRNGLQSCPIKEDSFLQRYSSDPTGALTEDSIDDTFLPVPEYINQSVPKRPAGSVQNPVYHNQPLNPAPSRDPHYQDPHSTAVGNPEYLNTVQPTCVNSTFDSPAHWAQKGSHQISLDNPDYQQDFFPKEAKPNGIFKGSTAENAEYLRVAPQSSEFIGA

| SMILES | IC50 (EGFR (human) [1]) | IC50 (EGFR (human) [2]) | IC50 (EGFR (human) [3]) | IC50 (EGFR (human) [4]) | IC50 (EGFR (human) [5]) |
| --- | --- | --- | --- | --- | --- |
| CCCCOC(=O)/C(C#N)=C/c1ccsc1[N+](=O)[O-] | > 500 µM | – | – | – | – |
| N#C/C(=C\c1ccc([N+](=O)[O-])s1)C(N)=O | > 500 µM | – | – | – | – |
| COC(=O)/C(C#N)=C/c1cc([N+](=O)[O-])cs1 | 18 µM | – | – | – | – |
| CCCCOC(=O)/C(C#N)=C/c1cc([N+](=O)[O-])cs1 | > 500 µM | – | – | – | – |
| N#C/C(=C\c1ccsc1[N+](=O)[O-])C(N)=S | 22.6 µM | 0.27 µM | 0.11 µM | 0.32 µM | 0.35 µM |
| COC(=O)/C(C#N)=C/c1ccc([N+](=O)[O-])s1 | > 500 µM | – | – | – | – |
| N#C/C(=C\c1ccc([N+](=O)[O-])s1)C(N)=S | 37.5 µM | 66.9 µM | 71.6 µM | 82.9 µM | 82.1 µM |
| CCOC(=O)/C(C#N)=C/c1ccsc1[N+](=O)[O-] | 100 µM | – | – | – | – |
| N#C/C(=C\c1ccc([N+](=O)[O-])s1)C(=O)O | 150 µM and > 500 µM | – | – | – | – |
| N#CC(C#N)=Cc1ccc([N+](=O)[O-])s1 | 50 µM | 20.7 µM | 28 µM | 25.8 µM | 25.4 µM |
| N#CC(C#N)=Cc1ccsc1[N+](=O)[O-] | 15.3 µM | – | – | – | – |
| CC(C)(C)OC(=O)/C(C#N)=C/c1ccsc1[N+](=O)[O-] | 9 µM | – | – | – | – |
| N#CC(C#N)=Cc1cc([N+](=O)[O-])cs1 | 2 µM | – | – | – | – |
| N#C/C(=C\c1ccsc1[N+](=O)[O-])C(N)=O | 400 µM | – | – | – | – |
| CCCCOC(=O)/C(C#N)=C/c1ccc([N+](=O)[O-])s1 | > 500 µM | – | – | – | – |
| COC(=O)/C(C#N)=C/c1ccsc1[N+](=O)[O-] | 50 µM | – | – | – | – |
| CC(C)(C)OC(=O)/C(C#N)=C/c1ccc([N+](=O)[O-])s1 | 75 µM | – | – | – | – |

Results, then the compound that gave them:

| IC50 (EGFR (human) [1]) | IC50 (EGFR (human) [2]) | IC50 (EGFR (human) [3]) | IC50 (EGFR (human) [4]) | IC50 (EGFR (human) [5]) | SMILES |
| --- | --- | --- | --- | --- | --- |
| 7 µM | > 100 µM | > 100 µM | > 100 µM | > 100 µM | N#CC(C#N)=C(N)/C(C#N)=C/c1csc([N+](=O)[O-])c1 |
| > 500 µM | – | – | – | – | N#C/C(=C\c1csc([N+](=O)[O-])c1)C(=O)O |
| > 500 µM | – | – | – | – | N#C/C(=C\c1csc([N+](=O)[O-])c1)C(N)=O |
| > 500 µM | – | – | – | – | N#C/C(=C\c1cc([N+](=O)[O-])cs1)C(N)=S |
| 160 µM | – | – | – | – | N#CC(C#N)=C(N)/C(C#N)=C/c1cc([N+](=O)[O-])cs1 |
| > 500 µM | – | – | – | – | CCOC(=O)/C(C#N)=C/c1cc([N+](=O)[O-])cs1 |
| 10.5 µM | – | – | – | – | N#C/C(=C\c1csc([N+](=O)[O-])c1)C(N)=S |
| 47 µM | – | – | – | – | N#C/C(=C\c1cc([N+](=O)[O-])cs1)C(N)=O |
| 14.6 µM | 5.1 µM | 4.73 µM | 4.7 µM | 7.8 µM | N#CC(C#N)=C(N)/C(C#N)=C/c1ccsc1[N+](=O)[O-] |
| 9 µM | > 100 µM | > 100 µM | > 100 µM | > 100 µM | CCOC(=O)/C(C#N)=C/c1csc([N+](=O)[O-])c1 |
| > 500 µM | – | – | – | – | CCCCOC(=O)/C(C#N)=C/c1csc([N+](=O)[O-])c1 |
| > 500 µM | – | – | – | – | COC(=O)/C(C#N)=C/c1csc([N+](=O)[O-])c1 |
| 150 µM | – | – | – | – | CC(C)(C)OC(=O)/C(C#N)=C/c1csc([N+](=O)[O-])c1 |

From the Kinase Knowledgebase extract (Sharma et al. 2016)
